Consider 15 compounds from patent US20260184687A1, “DIHYDROINDENE DERIVATIVES AS MALT1 INHIBITORS” (C4X Discovery Limited, priority 2022, published 2026).

The pIC50 is −log10 of the IC50, conventionally taken in molar units.

The structures appear in SMILES notation. pIC50: −log10 of the molar value.

Test [1] deals with IL-2 release from stimulated Jurkat cells. Nature of the test: Human IL-2 Release Phenotypic Assay (Assay 3). Format: cell-based. The settings on record: Jurkat cells (clone E6-1), 200 ng/mL PMA + 300 ng/mL ionomycin, IL-2 by ELISA. Put shortly:
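Jurkat E6-1 cells in RPMI1640/10% FBS were seeded at 50 000 cells/well and incubated overnight at 37° C. Half-log compound dilutions (0.5% final DMSO) were added for 30 min, then cells were stimulated with 200 ng/mL PMA + 300 ng/mL ionomycin for 48 h. IC50 came from a 4-parameter non-linear regression fit.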
(In general: In an ELISA, binding on a coated surface is turned into a signal by an enzyme label.)

In test [2] the target is T1, FL hMALT1 enzyme (Homo sapiens, UniProt Q9UDY8).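 Further: Cell-free protease assay: enzyme preincubated with compound 30 min at room temperature, then cleavage of fluorogenic Ac-LVSR-AMC substrate (100 µM) tracked by fluorescence (ex 360/em 460 nm).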
T1 sequence (Q9UDY8 1-824): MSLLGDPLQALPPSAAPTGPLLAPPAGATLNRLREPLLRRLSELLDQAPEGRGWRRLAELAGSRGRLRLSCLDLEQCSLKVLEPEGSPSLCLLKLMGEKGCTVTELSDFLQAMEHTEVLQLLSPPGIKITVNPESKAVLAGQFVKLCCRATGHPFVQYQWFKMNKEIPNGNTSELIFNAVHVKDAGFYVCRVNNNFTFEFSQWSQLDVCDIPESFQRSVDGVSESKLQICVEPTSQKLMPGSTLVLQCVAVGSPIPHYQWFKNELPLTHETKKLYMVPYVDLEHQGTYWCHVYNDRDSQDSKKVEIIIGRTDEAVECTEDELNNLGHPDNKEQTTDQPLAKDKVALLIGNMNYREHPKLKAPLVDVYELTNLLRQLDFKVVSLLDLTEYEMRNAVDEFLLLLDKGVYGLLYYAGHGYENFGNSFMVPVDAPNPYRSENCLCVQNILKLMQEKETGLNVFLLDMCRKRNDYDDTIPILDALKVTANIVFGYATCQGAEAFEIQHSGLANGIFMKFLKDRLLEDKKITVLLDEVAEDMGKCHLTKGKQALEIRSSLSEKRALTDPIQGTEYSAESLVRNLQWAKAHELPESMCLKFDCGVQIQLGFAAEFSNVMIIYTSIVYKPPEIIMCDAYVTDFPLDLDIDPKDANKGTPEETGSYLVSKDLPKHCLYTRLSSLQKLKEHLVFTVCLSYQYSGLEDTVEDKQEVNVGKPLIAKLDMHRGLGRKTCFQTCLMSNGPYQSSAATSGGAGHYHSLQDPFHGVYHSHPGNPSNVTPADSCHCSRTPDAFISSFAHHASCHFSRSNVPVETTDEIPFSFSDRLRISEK
Nature of the test: biochemical.
Procedure: MALT1 protease activity was assessed in vitro by measuring the cleavage of a fluorogenic tetrapeptide substrate.
For a higher sensitivity assay, commercially available FL hMALT1 enzyme (Abcam, 1-10 nM) was incubated with substrate (Ac-LVSR-AMC, 100 μM) in reaction buffer comprising 50 mM HEPES (pH7.0), 25 mM KCl, 0.1% (v/v) CHAPS, 1 mM TCEP and 0.7 M sodium citrate.
Test compounds dissolved in DMSO were dispensed into assay plates (384-well, black, shallow ProxiPlates). 7 μl enzyme solution was added and incubated at room temperature for 30 minutes to allow compound binding to occur. 2 μl substrate solution was then added and the fluorescence (excitation 360 nm, emission 460 nm) read every 15 minutes using a suitable plate reader. Final assay DMSO concentration was 1%. […] IC50 values were calculated using GraphPad Prism using a 4-parameter non-linear regression curve fit.

As for `CN(C(=O)[C@H]1CC[C@@H](NS(C)(=O)=O)C1)[C@@H](c1ccc(N[C@H]2Cc3ccccc3C2(C)C)cn1)C(F)(F)F` [Example 221, (1S,3R)—N—((S)-1-(5-(((S)-1,1-Dimethyl-2,3-dihydro-1H-inden-2-yl)amino)pyridin-2-yl)-2,2,2-trifluoroethyl)-N-methyl-3-(methylsulfonamido)cyclopentane-1-carboxamide], the pIC50 in test [1] (Homo sapiens, Jurkat, 48 h) is 6.64; in test [2], 7.68.
For the compound `CNC(=O)N1CC(C(=O)N(C)[C@@H](c2ccc(NC3Cc4ccccc4C3(C)C)cn2)C(F)(F)F)C1` (single isomer, unassigned) [Example 227], the pIC50 in test [1] (48 hours) was 7.00; in test [2] it was 7.74.
For the compound `CCc1cccc2c1CC(Nc1ccc([C@H](N(C)C(=O)C3CCS(=O)(=O)CC3)C(F)(F)F)nc1)C2` (single isomer, unassigned) [Example 198], the pIC50 in test [1] (Homo sapiens, Jurkat, 48 h) is 5.92; in test [2], 7.11.
The matching figures for `CNC(=O)N1CC(C(=O)N(C)[C@@H](c2ccc(NC3Cc4ccc(Cl)c(Cl)c4C3)cn2)C(F)(F)F)C1` (single isomer, unassigned) [Example 335]: 7.38 and 7.85.
Consider `CN1CCC(C(=O)N(C)[C@@H](c2ccc(N[C@H]3Cc4ccccc4C3(C)C)cn2)C(F)(F)F)CC1=O` (single isomer, unassigned) [Example 251], for which the pIC50 in test [1] (48 hours) was 6.49; in test [2] it was 7.49.
Consider `CN(C(=O)C1CCS(=O)(=O)CC1)[C@@H](c1ccc(NC2Cc3c(F)ccc(Cl)c3C2)cn1)C(F)(F)F` (single isomer, unassigned) [Example 293], for which the pIC50 in test [1] (Homo sapiens, Jurkat, 48 h) is 6.34; in test [2], 7.26.
With `CN(C(=O)C1CNC(=O)O1)[C@@H](c1ccc(N[C@@H]2Cc3ccccc3C2(C)C)cn1)C(F)(F)F` (single isomer, unassigned) [Example 111], the pIC50 in test [1] (48 hours) was 6.19; in test [2], 7.28.
In the same order, the values of `CN1CC(C(=O)N(C)[C@@H](c2ccc(N[C@H]3Cc4ccccc4C3(C)C)cn2)C(F)(F)F)CCC1=O` (single isomer, unassigned) [Example 253] are 6.38 and 7.18.
Turning to `CC(=O)N1CCC[C@H]1C(=O)N(C)[C@@H](c1ccc(N[C@H]2Cc3ccccc3C2(C)C)cn1)C(F)(F)F` (single isomer, unassigned) [Example 194], the pIC50 in test [1] (Homo sapiens, Jurkat, 48 h) is 6.20; in test [2] it was 7.28.
In the same order, the values of `CN(C(=O)[C@H]1C[C@@]2(COC(=O)N2)C1)[C@@H](c1ccc(NC2Cc3ccccc3C2(C)C)cn1)C(F)(F)F` (single isomer, unassigned) [Example 208] are 6.60 and 7.57.
The matching figures for `CN1CCCC(C(=O)N(C)[C@@H](c2ccc(NC3Cc4ccccc4C3(C)C)cn2)C(F)(F)F)C1` (single isomer, unassigned) [Example 129]: 5.74 and 6.68.
The matching figures for `CN(C(=O)C1CCS(=O)(=O)CC1)[C@@H](c1ccc(NC2Cc3cccc(Cl)c3C2)cn1)C(F)(F)F` (single isomer, unassigned) [Example 263]: 6.29 and 7.21.
With `CN(C(=O)[C@@H]1CNC(=O)C1)[C@@H](c1ccc(NC2Cc3ccc(Cl)c(C4CC4)c3C2)cn1)C(F)(F)F` (single isomer, unassigned) [Example 328], the pIC50 was 6.62 in test [1] (Homo sapiens, Jurkat, 48 h) and 7.74 in test [2].
As for `CNC(=O)C12CC(C(=O)N(C)[C@@H](c3ccc(N[C@H]4Cc5ccccc5C4(C)C)cn3)C(F)(F)F)(C1)C2` [Example 185, N^1—((S)-1-(5-(((S)-1,1-Dimethyl-2,3-dihydro-1H-inden-2-yl)amino)pyridin-2-yl)-2,2,2-trifluoroethyl)-N^1,N^3-dimethylbicyclo[1.1.1]pentane-1,3-dicarboxamide], the pIC50 in test [1] (Homo sapiens, Jurkat, 48 h) is 6.52; in test [2], 7.38.
With `CN(C(=O)C1CCC(=O)NC1)[C@@H](c1ccc(NC2Cc3ccccc3C2(C)C)cn1)C(F)(F)F` (single isomer, unassigned) [Example 105], the values for the pIC50 in test [1] (48 hours) and in test [2] were 6.64 and 7.44, respectively.
